Where two headings read alike, the source gives them in different places.
What was measured:
[1] = system: A549 cells; test: MTT cytotoxicity assay, A549; format: cell-based, human; conditions: 72 h
Method: (§1) The cytotoxicity study of the prepared copper(II) complexes was performed using the MTT assay on human cell lines—A549 (adenocarcinoma human alveolar basal epithelial cell line), HepG2 (human liver cancer cell line) and HEL (human lung fibroblast cell line, normal cells).
(§2) The cytotoxicity of the prepared copper(II) complexes in human cell lines was evaluated using the 3-(4,5-dimethylthiazol-2-yl)-2,5-diphenyltetrazolium bromide (MTT) assay following the protocol by Mosmann. Briefly, A549 (human lung epithelial cells, carcinoma), HepG2 (human liver epithelial cells, carcinoma) and HEL (human lung fibroblast cells, normal) cells were seeded in plastic 96-well plates at a density of 1.5–2 × 10^4 cells per well. […] After the treatment, the samples were washed with phosphate-buffered saline (PBS), followed by 4 h of incubation with 1 mg/mL of MTT. Subsequently, the MTT solution was removed, and the formed formazane solids were dissolved in dimethyl sulfoxide for 30 min. The photometric evaluation (at 540 nm and 690 nm) was carried out using an xMark™ Microplate Absorbance Spectrophotometer (Bio-Rad, Hercules, CA, USA) [88].
(§3) A549 (ATCC® CCL-185), HepG2 (ATCC® HB-8065) and HEL299 (ATCC® CCL-137) cells were obtained from Lambda Life (Bratislava, Slovakia). A549 cells were kept in Dulbecco’s Modified Eagle’s Medium (DMEM) supplemented with 10% fetal bovine serum (FBS) and 1% antibiotics (penicillin and streptomycin). HepG2 cells were kept in Williams medium supplemented with 10% fetal bovine serum (FBS) and 1% antibiotics (penicillin and streptomycin). HEL299 cells were kept in Minimum Essential Medium (MEM) supplemented with 10% fetal bovine serum (FBS), 1% antibiotics (penicillin and streptomycin) and 1% non-essential amino acids (NEAA). The cells were cultured in a humidified atmosphere of 5% CO2 at 37 °C. Once the cells reached approximately 80% confluence, they were harvested and subcultured after trypsin treatment.

[2] = system: HepG2 cells; test: MTT cytotoxicity assay, HepG2; format: cell-based, human; conditions: 72 h
Method: as §1, §2, §3

[3] = system: HEL cells (human lung fibroblast, normal); test: MTT cytotoxicity assay, HEL; format: cell-based; conditions: 72 h
Method: as §1, §2, §3

[4] = SOD mimetic activity / radical scavenging assay (INT method); format: biochemical
Method: The radical scavenging ability with respect to the SOD mimetic activity of the prepared complexes was determined by the INT method. This method is based on a competitive reaction with the superoxide anion radical from KO2 between the measured compound (complex) and 2-(4-Iodophenyl)-3-(4-nitrophenyl)-5-phenyl-2H-tetrazolium chloride (INT). INT reacts with the single electron of O2^− and produces blue-green formazane detected as light absorption at 500 nm. Complexes with good antiradical activity also react with O2^−, and as a result of this, less formazane is formed.
The first type of antiradical activity measurements involved the determination of inhibition percent values of electron transfer on INT at specific concentrations (Table 9). Two concentrations were selected to achieve good solubility of the complexes (4 and 1 mM for 4a and 4c, 2 and 1 mM for 4b). The complex 4b dissolved readily at a concentration of 4 mM, but the mixture was very dark, making measurements at 500 nm difficult. Therefore, a less concentrated initial solution was used (2 mM) as the higher concentration. In total, 0.5 mL of the initial solutions was used to prepare sample solutions that also contained INT and KO2 solutions and DMSO with an overall volume of 3.5 mL. The resulting concentrations were c1 = 0.572 mM, c1* = 0.286 mM and c2 = 0.143 mM, respectively. Complexes 4a and 4c once again provided high percentages at c1 (approximately 96–99%) but the activity dropped below 24% at c2, while complex 4b maintained mediocre activity at both concentrations. It seems that the concentration increase had only a small effect on the activity of 4b; something similar was also observed in the DNA cleavage study for complex 4b. The complexes were compared with the model compound cystamine, which was used as a standard for superoxide antiradical scavenging due to the presence of a free […] group, which is also present in glutathione.
To improve the comparability of SOD mimetic activity, IC50 concentrations were determined by performing a series of measurements with decreasing concentration. IC50 values were calculated from the trend function equation as the concentration with 50% inhibition of electron transfer on INT (Table 10).
The method is based on the agent 2-(4-Iodophenyl)-3-(4-nitrophenyl)-5-phenyl-2H-tetrazolium chloride (INT), able to scavenge a superoxide radical anion from KO2. The reaction produces a blue-green formazane, which is detected as light absorption at 500 nm. The radical scavengers (measured complexes) compete with INT for radicals and reduce the formation of formazane and light absorption at 500 nm. Antiradical activity was measured on a Synergy HT BioTek spectrophotometer. DMSO was used as the solvent for the complex and KO2 (saturated solution). The INT initial solution (4 M) was prepared in a sodium tetraborate buffer solution with pH adjusted to 7.1 with HCl.
For each measurement, an initial solution of the sample (0.5 mL) of a specific concentration (4–0.1 mM) was prepared in DMSO. Due to the addition of INT (0.5 mL) and KO2 (0.5 mL) solutions and additional DMSO (2 mL), the concentrations of the measured complexes decreased seven times (3.5 mL of total mixture). Each result was the average value of three parallel measurements expressed with a standard deviation (more information in the Supplementary Materials). For the determination of SOD-IC50, several measurements with decreasing sample concentration were performed. […] A linear trend function of the percentage of inhibition and negative logarithm of concentration was used to calculate the SOD-IC50 value as the concentration with 50% inhibition of INT–formazane formation. […]
Green: 5c 5 mM (S. cerevisiae 1x10^9 cells /ml + 0.5 ml 0.9% NaCl + 0.5 ml 5c + 0.1 ml Resazurin OX) measured in time
S6. SOD Mimetic A ctivity A ssay
For each measurement, an initial solution of the sample of a specific concentration was prepared […]

| IC50 ([4]; 50% inhibition of electron transfer on INT, read-out: SOD-IC50) | IC50 ([4]; INT method, read-out: concentration of 50% inhibition (SOD-IC50), given as range) | SMILES | IC50 [1] | IC50 [2] | IC50 [3] | Activity at c1 (%), inhibition of radical transfer to INT ([4]; c1 = 0.572 mM) | Activity at c2 (%), inhibition of radical transfer to INT ([4]; c2 = 0.143 mM) |
| --- | --- | --- | --- | --- | --- | --- | --- |
|  |  | N.N.[Cl][Pt][Cl] [cisplatin, reference compound] | 26.2 ± 4.1 µM | 16 ± 3.4 µM | 68.4 ± 0.3 µM |  |  |
| 1700 ± 100 µM | > 1000 µM | NCCSSCCN [cystamine, reference compound] |  |  |  | 22.1 ± 1.8% | 2.0 ± 0.0% |
